Laboratory results as given in patent US9757350B2, “Small molecule inhibitors of replication protein A that also act synergistically with cisplatin” (Indiana University Research and Technology Corp., priority 2010, dated 2017).
“Also recorded” adds a separate entry of the source.

Experiments:
[1] = system: A549 cells; experiment: Crystal violet cell viability assay, A549; format: cell-based; details: 48 hours
Experimental: Referring now to FIG. 11A. Gel showing effect of MCI13E on DNA-RPA binding. […] Cytotoxicity was analyzed via crystal violet analysis as described in “methods” 48 hours following MCI13E treatment. Data represent the average and standard deviation of four replicate experiments with each replicate containing triplicate determinations and the circles represent data from H460 cells and squares A549 cells. Referring now to FIG. 11C. Graph of MCI13E induced death via apoptosis in NSCLC cell lines. Cell were treated with the indicated concentrations of MCI13E for 48 hours and analyzed for the induction of apoptosis via Annexin V/PI staining Referring now to FIG. 11D. Graph of cell survival as a function of [MCI1EC]. Percent survival was calculated for each cell line using untreated cells as a control. Data presented are the average and standard deviation from four replicate experiments. […]
Cell Viability Assays—A crystal violet cell viability assay was performed to determine cytotoxicity of SMI. […] Stained cells were resuspended in 500 μl DMSO containing 1% SDS and absorbance was measured at 590 nm in a SpectraMax M5 plate reader (Molecular Devices, Sunnyvale, Calif.) and analyzed using SoftMax Pro 5.2. Percent viability is taken as an absorbance percentage against control untreated cells. […]

[2] = molecular target: T1, full-length heterotrimeric RPA (Homo sapiens, UniProt P27694); experiment: EMSA in vitro DNA binding assay, full-length heterotrimeric RPA; details: ssDNA substrate
T1 construct: Human full-length, un-tagged heterotrimeric RPA (RPA) was purified as previously describe; made in house
T1 sequence (P27694 whole entry): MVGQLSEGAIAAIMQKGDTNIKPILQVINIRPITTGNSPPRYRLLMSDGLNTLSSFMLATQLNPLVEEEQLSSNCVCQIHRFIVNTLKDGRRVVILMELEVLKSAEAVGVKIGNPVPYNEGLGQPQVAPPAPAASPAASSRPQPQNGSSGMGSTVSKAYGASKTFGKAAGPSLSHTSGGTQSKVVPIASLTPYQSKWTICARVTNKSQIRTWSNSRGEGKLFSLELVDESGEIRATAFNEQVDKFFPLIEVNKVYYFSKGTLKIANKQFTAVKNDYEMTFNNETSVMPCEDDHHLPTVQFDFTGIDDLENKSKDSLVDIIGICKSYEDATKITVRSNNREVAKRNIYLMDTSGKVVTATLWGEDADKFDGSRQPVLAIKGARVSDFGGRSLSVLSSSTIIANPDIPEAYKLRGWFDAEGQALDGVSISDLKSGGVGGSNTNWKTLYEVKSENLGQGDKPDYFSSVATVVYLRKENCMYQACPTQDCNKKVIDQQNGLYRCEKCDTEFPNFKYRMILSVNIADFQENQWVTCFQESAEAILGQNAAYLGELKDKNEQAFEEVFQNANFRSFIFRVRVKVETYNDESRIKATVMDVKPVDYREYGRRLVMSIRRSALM
T1 sequence (P15927 whole entry partner): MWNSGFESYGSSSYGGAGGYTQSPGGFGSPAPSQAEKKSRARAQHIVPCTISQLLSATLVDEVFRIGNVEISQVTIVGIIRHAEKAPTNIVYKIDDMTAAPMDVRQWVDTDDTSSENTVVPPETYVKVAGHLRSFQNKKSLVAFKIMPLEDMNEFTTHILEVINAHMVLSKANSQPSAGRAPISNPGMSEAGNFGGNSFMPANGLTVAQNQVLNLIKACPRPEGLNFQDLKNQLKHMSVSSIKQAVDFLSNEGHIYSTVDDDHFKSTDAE
T1 sequence (P35244 whole entry partner): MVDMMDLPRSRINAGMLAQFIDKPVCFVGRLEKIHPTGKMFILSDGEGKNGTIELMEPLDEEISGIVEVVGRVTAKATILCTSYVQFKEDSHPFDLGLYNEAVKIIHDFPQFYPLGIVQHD
Experimental: RPA. Human full-length, un-tagged heterotrimeric RPA (RPA) was purified as previously describe.
RPA and DBD-A/B Binding. EMSAs were performed as previously described (22) using a 30-base purine rich ssDNA substrate (3Pc3). Briefly, reactions contained 12.5 nM 5′-[^32P]-labeled 3Pc3 ssDNA and the indicated concentrations of RPA or DBD-A/B. Protein was pre-incubated with the indicated concentration of SMI for 30 minutes at 37° C. DNA was then added and reactions incubated for an additional 5 minutes at room temperature in a final reaction volume of 40 μL. Reactions were then resolved on a 6% native polyacrylamide gel and electrophoresed at 170 volts for 1 hour. Gels were dried and quantified via phosphorimager analysis and ImageQuant software (Molecular Dynamics).

[3] = molecular target: T2, RPA DBD-A/B (Homo sapiens, UniProt P27694); experiment: EMSA DNA binding assay, RPA DBD-A/B construct
T2 construct: made in house; host or cells: E. coli BL21(DE3)
T2 sequence (P27694 181-422 limits assumed): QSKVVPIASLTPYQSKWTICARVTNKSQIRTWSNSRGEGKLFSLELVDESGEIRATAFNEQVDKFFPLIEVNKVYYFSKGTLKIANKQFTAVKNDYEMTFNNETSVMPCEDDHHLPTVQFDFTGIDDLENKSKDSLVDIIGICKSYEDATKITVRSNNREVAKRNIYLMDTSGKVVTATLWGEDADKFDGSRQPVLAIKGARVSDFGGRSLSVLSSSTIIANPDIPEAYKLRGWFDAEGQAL
Experimental: DBD-A/B. The sequence encoding the RPA p70 DNA binding domains A and B were subcloned from the hrRPA plasmid (provided by Dr. Marc Wold, University of Iowa) into the pET15b (Novagen) vector and the protein was expressed in BL21(DE3) cells (Stratagene) as previously described. Briefly, cells were grown to an OD600 of 0.8, induced with 0.5 mM isopropyl-1-thio-β-D-galactopyranoside (IPTG) at 37° C. for 2-3 hours. Small scale DBD-A/B preparations were obtained from 1 L cultures and following induction, cells were harvested by centrifugation at 700×g for 30 minutes at 4° C. The pellets were suspended in Buffer A (20 mM Tris, pH 7.5, 10% glycerol, 500 mM NaCl, 10 mM β-mercaptoethanol (BME) and 1 μg/mL phenylmethanesulfonylfluoride (PMSF), leupeptin and pepstatin) at 1 mL/gram of cells. The cells were lysed by sonication and insoluble material sedimented at 15,000×g for 30 minutes at 4° C. The supernatant was then loaded onto a 10 mL phosphocellulose column, equilibrated with Buffer A, and the flow-through material collected. Imidazole was added to 5 mM to the flow through which was then loaded onto a 2 mL nickel-NTA-agarose column. The column was then washed with Buffer A containing 50 mM imidazole after which protein was eluted from the column using a gradient from 50-500 mM imidazole. Fractions were analyzed for protein content using Bradford and SDS-PAGE analysis in addition to assessment of DNA binding activity as determined by anisotropy. Fractions containing the DBD-A/B protein were pooled and dialyzed overnight in Buffer B (1 mM HEPES, pH 7.2, 10 mM dithiothreitol (DTT), 50 mM NaCl and 1 μg/mL PMSF, pepstatin and leupeptin) and aliquots stored at −80° C.
RPA and DBD-A/B Binding. EMSAs were performed as previously described (22) using a 30-base purine rich ssDNA substrate (3Pc3). […] Gels were dried and quantified via phosphorimager analysis and ImageQuant software (Molecular Dynamics).

[4] = molecular target: T3, EcSSB (Escherichia coli, UniProt P0AGE0); experiment: E. coli SSB DNA-binding EMSA; details: 0-200 μM, pre-incubated with protein
T3 construct: purchased Enzymatics, Beverly, Mass
T3 sequence (P0AGE0 2-178): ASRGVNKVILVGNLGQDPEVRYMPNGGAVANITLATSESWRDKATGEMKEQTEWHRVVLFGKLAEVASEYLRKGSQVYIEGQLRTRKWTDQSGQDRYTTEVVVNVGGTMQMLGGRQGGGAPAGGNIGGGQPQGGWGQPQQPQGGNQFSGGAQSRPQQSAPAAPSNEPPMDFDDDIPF
Experimental: In order to study the specificity of the CheSS19, and MCI13E/F compounds, their effects on two ssDNA binding proteins which use OB-folds for recognition and binding of ssDNA, E. coli SSB (6) and the Schizosaccharomyces pombe Pot1(DBD) domain (11) were studied. The EcSSB protein is a non-sequence-specific ssDNA binding protein, whereas the SpPot1(DBD) protein is a telomere-specific, ssDNA binding protein. In these experiments, protein was pre-incubated with the SMIs, as was done for the RPA experiments, prior to addition of radiolabeled ssDNA to the reactions.
Referring now to FIG. 6B. CheSS19 titration in EcSSB DNA-binding reactions. CheSS19 (0, 25, 50, 100, and 200 μM) was pre-incubated with EcSSB and binding reactions were carried out. Referring now to FIG. 6C. Titration of MCI13E and MCI13F in EcSSB DNA-binding reactions. Concentrations of MCI13E/F used were: 0, 25, 50, 100, and 200 μM. In all panels, the ‘Free’ ssDNA is indicated with an arrow and the ‘Bound’ ssDNA is indicated by brackets. All reactions were performed in the same order and manner as the RPA binding reactions. EcSSB binding was unaffected by CheSS19 and the MCI13E and MCI13F compounds […].
EMSAs were performed similarly to those for the RPA constructs, with the following exceptions. Reactions contained 25 nM of 5′-[^32P]-labeled 3Pc3 ssDNA and 3.3 nM (assuming homotetramer formation) SSB protein (Enzymatics, Beverly, Mass.). Reactions (20 μL) were carried out in 20 mM HEPES, pH 7.5, 1 mM DTT, 0.01% NP-40, 100 mM NaCl, and resolved by 6% native polyacrylamide gel electrophoresis at 25 mA for 2 hours. Gels were dried and quantified via phosphorimager analysis and ImageQuant software (Molecular Dynamics).

Q: With `CC1(C)C2CCC1(C)C(OC(=O)CI)C2` (racemic) [MCI13F, (+/−)-Isobornyl iodoacetate] as the molecule, how does the IC50 [1] read?
A: Its IC50 is ~5 µM.

Q: What about the “Inhibition of full-length RPA DNA binding” value [2] of the same molecule?
A: Its value is “slightly more effective”.

Q: And the “Inhibition of DBD-A/B DNA binding” value [3]?
A: Its value is “no inhibitory activity; also recorded: completely ineffective”.

Q: And the “Effect on EcSSB ssDNA binding” value [4]?
A: The value was “unaffected; also recorded: no significant inhibition”.

Q: Which IC50 [1] does the source give for `CC1(C)C2CCC1(C)C(OC(=O)CBr)C2` (racemic) [MCI13E, (+/−)-Isobornyl bromoacetate] here?
A: The IC50 was ~5 µM.

Q: And the “Inhibition of full-length RPA DNA binding” value [2]?
A: The value was “inhibits RPA-DNA binding in vitro; also recorded: inhibition of the full-length heterotrimer RPA”.

Q: And the “Inhibition of DBD-A/B DNA binding” value [3]?
A: The value was “no inhibitory activity; also recorded: completely ineffective”.

Q: What about the “Effect on EcSSB ssDNA binding” value [4] of the same molecule?
A: Its value is “unaffected; also recorded: no significant inhibition”.
